# Experimental data reported in patent US20100255580A1, “Differentiation of Human Embryonic Stem Cells” (LIFESCCAN, INC., priority 2007, published 2010).
# Where two headings read alike, the source gives them in different places.
# Tested on: H9 embryonic stem cells
# Format: cell-based, human
# Settings: DE treatment in low serum
# Procedure: Controls for each group included cells plated on […]-coated dishes and cultured in MEF-conditioned medium or cells plated on MEFs and cultured in ES medium. All groups contained three biological replicates and each biological replicate was repeated on two separate gene chips.
# Sample preparation, hybridization, and image analysis were performed according to the Affymetrix Human Genome U133 Plus 2.0 Array. Following normalization and a log transformation, data analysis was performed using OmniViz® software (MA) and […] (VizXLabs, WA). Significant differences in gene expression between the samples were evaluated using analysis of variance and an F-test with adjusted P-value (Benjamini and
# Hochberg correction) of ≦b 0.05. Only genes with a present call in at least one group were included in the analysis.
substance,measurement,setting,value
Activin A: a member of the TGFβ superfamily; R&D Systems; Group 2 = Activin A (100 ng/ml),"mean normalized intensity (log format), gene: DKFZP566K1924 protein",on MATRIGEL,2.882
same,"mean normalized intensity (log format), gene: ESTs (r2006)",on MATRIGEL,1.5857
same,"mean normalized intensity (log format), gene: ESTs (r2025)",on MATRIGEL,1.531
same,"mean normalized intensity (log format), gene: ESTs (r2032)",on MATRIGEL,0.1336
same,"mean normalized intensity (log format), gene: ESTs (r2038)",on MATRIGEL,3.262
same,"mean normalized intensity (log format), gene: ESTs (r2134)",on MATRIGEL,−1.3795
same,"mean normalized intensity (log format), gene: ESTs (r2148)",on MATRIGEL,4.454
same,"mean normalized intensity (log format), gene: ESTs, Moderately similar to ALU2_HUMAN ALU SUBFAMILY SB SEQUENCE CONTAMINATION WARNING ENTRY (H. sapiens)",on MATRIGEL,4.241
same,"mean normalized intensity (log format), gene: H. sapiens mRNA for B-HLH DNA binding protein.",on MATRIGEL,5.43
same,"mean normalized intensity (log format), gene: Homo sapiens BCL2-interacting killer (apoptosis-inducing) (BIK), mRNA.",on MATRIGEL,4.3
same,"mean normalized intensity (log format), gene: Homo sapiens Charot-Leyden crystal protein (CLC), mRNA.",on MATRIGEL,3.301
same,"mean normalized intensity (log format), gene: Homo sapiens HES-related repressor protein 1 HERP1 mRNA, complete cds.",on MATRIGEL,2.806
same,"mean normalized intensity (log format), gene: Homo sapiens HSPC156 protein (HSPC156), mRNA.",on MATRIGEL,0.7862
same,"mean normalized intensity (log format), gene: Homo sapiens KIAA0469 gene product (KIAA0469), mRNA.",on MATRIGEL,4.031
same,"mean normalized intensity (log format), gene: Homo sapiens PNAS-123 mRNA, complete cds",on MATRIGEL,1.597
same,"mean normalized intensity (log format), gene: Homo sapiens Wilms tumor 1 (WT1), transcript variant D, mRNA.",on MATRIGEL,2.405
same,"mean normalized intensity (log format), gene: Homo sapiens cDNA FLJ11398 fis, clone HEMBA1000637.",on MATRIGEL,2.5268
same,"mean normalized intensity (log format), gene: Homo sapiens cDNA: FLJ22547 fis, clone HSI00356",on MATRIGEL,4.294
same,"mean normalized intensity (log format), gene: Homo sapiens cadherin 6, type 2, K-cadherin (fetal kidney) (CDH6), mRNA.",on MATRIGEL,0.8248
same,"mean normalized intensity (log format), gene: Homo sapiens chorionic somatomammotropin hormone 2 (CSH2), transcript variant 1, mRNA.",on MATRIGEL,1.124
same,"mean normalized intensity (log format), gene: Homo sapiens chorionic somatomammotropin hormone 2 (CSH2), transcript variant 4, mRNA.",on MATRIGEL,0.8122
same,"mean normalized intensity (log format), gene: Homo sapiens galanin receptor 1 (GALR1), mRNA.",on MATRIGEL,2.507
same,"mean normalized intensity (log format), gene: Homo sapiens growth hormone 2 (GH2), transcript variant 2, mRNA.",on MATRIGEL,0.9226
same,"mean normalized intensity (log format), gene: Homo sapiens hypothetical protein FLJ20075 (FLJ20075), mRNA.",on MATRIGEL,−0.3592
same,"mean normalized intensity (log format), gene: Homo sapiens mRNA for SCCA2b, complete cds.",on MATRIGEL,3.329
same,"mean normalized intensity (log format), gene: Homo sapiens mRNA; cDNA DKFZp586P1124 (from clone DKFZp586P1124)",on MATRIGEL,0.4856
same,"mean normalized intensity (log format), gene: Homo sapiens methyl-CpG binding protein MBD2 (MBD2) mRNA, complete cds.",on MATRIGEL,0.4906
same,"mean normalized intensity (log format), gene: Homo sapiens tachykinin, precursor 1 (TAC1), transcript variant beta, mRNA.",on MATRIGEL,2.773
same,"mean normalized intensity (log format), gene: Homo sapiens testis expressed sequence 14 (TEX14), mRNA.",on MATRIGEL,3.512
same,"mean normalized intensity (log format), gene: Homo sapiens, Similar to LIM homeobox protein 8, clone IMAGE: 4839343, mRNA.",on MATRIGEL,−0.06288
same,"mean normalized intensity (log format), gene: Homo sapiens, Similar to cadherin 6, type 2, K-cadherin (fetal kidney), clone MGC: 1470, mRNA, complete cds.",on MATRIGEL,2.547
same,"mean normalized intensity (log format), gene: Homo sapiens, Similar to hypothetical protein FLJ10058, clone MGC: 34305 IMAGE: 5167647, mRNA, complete cds.",on MATRIGEL,1.698
same,"mean normalized intensity (log format), gene: Homo sapiens, Similar to hypothetical protein FLJ32001, clone MGC: 39559 IMAGE: 4828136, mRNA, complete cds.",on MATRIGEL,0.5207
same,"mean normalized intensity (log format), gene: Homo sapiens, clone IMAGE: 4067166, mRNA",on MATRIGEL,0.1959
same,"mean normalized intensity (log format), gene: Homo sapiens, clone IMAGE: 4828836, mRNA.",on MATRIGEL,0.9729
same,"mean normalized intensity (log format), gene: Homo sapiens, serine (or cysteine) proteinase inhibitor, clade B (ovalbumin), member 3, clone MGC: 12244, mRNA, complete cds.",on MATRIGEL,1.969
same,"mean normalized intensity (log format), gene: Human mRNA upregulated during camptothecin-induced apoptosis of U937 cells.",on MATRIGEL,0.4945
same,"mean normalized intensity (log format), gene: Human platelet-derived growth factor alpha-receptor (PDGFRA) mRNA, exons 13-16",on MATRIGEL,2.445
same,"mean normalized intensity (log format), gene: KIAA1151 protein",on MATRIGEL,0.6425
same,"mean normalized intensity (log format), gene: caldesmon 1",on MATRIGEL,7.092
same,"mean normalized intensity (log format), gene: nuclear receptor subfamily 1, group I, member 3",on MATRIGEL,1.779
same,"mean normalized intensity (log format), gene: paternally expressed 3 (r2033)",on MATRIGEL,2.876
same,"mean normalized intensity (log format), gene: paternally expressed 3 (r2093)",on MATRIGEL,2.874
same,"mean normalized intensity (log format), gene: DKFZP566K1924 protein",on MEFS,1.391
same,"mean normalized intensity (log format), gene: ESTs (r2006)",on MEFS,−1.3
same,"mean normalized intensity (log format), gene: ESTs (r2025)",on MEFS,1.373
same,"mean normalized intensity (log format), gene: ESTs (r2032)",on MEFS,−1.566
same,"mean normalized intensity (log format), gene: ESTs (r2038)",on MEFS,1.5682
same,"mean normalized intensity (log format), gene: ESTs (r2134)",on MEFS,−0.9461
same,"mean normalized intensity (log format), gene: ESTs (r2148)",on MEFS,5.334
same,"mean normalized intensity (log format), gene: ESTs, Moderately similar to ALU2_HUMAN ALU SUBFAMILY SB SEQUENCE CONTAMINATION WARNING ENTRY (H. sapiens)",on MEFS,3.874
same,"mean normalized intensity (log format), gene: H. sapiens mRNA for B-HLH DNA binding protein.",on MEFS,3.451
same,"mean normalized intensity (log format), gene: Homo sapiens BCL2-interacting killer (apoptosis-inducing) (BIK), mRNA.",on MEFS,3.562
same,"mean normalized intensity (log format), gene: Homo sapiens Charot-Leyden crystal protein (CLC), mRNA.",on MEFS,2.1096
same,"mean normalized intensity (log format), gene: Homo sapiens HES-related repressor protein 1 HERP1 mRNA, complete cds.",on MEFS,2.406
same,"mean normalized intensity (log format), gene: Homo sapiens HSPC156 protein (HSPC156), mRNA.",on MEFS,1.296
same,"mean normalized intensity (log format), gene: Homo sapiens KIAA0469 gene product (KIAA0469), mRNA.",on MEFS,2.565
same,"mean normalized intensity (log format), gene: Homo sapiens PNAS-123 mRNA, complete cds",on MEFS,1.847
same,"mean normalized intensity (log format), gene: Homo sapiens Wilms tumor 1 (WT1), transcript variant D, mRNA.",on MEFS,−2.435
same,"mean normalized intensity (log format), gene: Homo sapiens cDNA FLJ11398 fis, clone HEMBA1000637.",on MEFS,1.849
same,"mean normalized intensity (log format), gene: Homo sapiens cDNA: FLJ22547 fis, clone HSI00356",on MEFS,2.095
same,"mean normalized intensity (log format), gene: Homo sapiens cadherin 6, type 2, K-cadherin (fetal kidney) (CDH6), mRNA.",on MEFS,−0.8763
same,"mean normalized intensity (log format), gene: Homo sapiens chorionic somatomammotropin hormone 2 (CSH2), transcript variant 1, mRNA.",on MEFS,2.616
same,"mean normalized intensity (log format), gene: Homo sapiens chorionic somatomammotropin hormone 2 (CSH2), transcript variant 4, mRNA.",on MEFS,2.218
same,"mean normalized intensity (log format), gene: Homo sapiens galanin receptor 1 (GALR1), mRNA.",on MEFS,−0.338
same,"mean normalized intensity (log format), gene: Homo sapiens growth hormone 2 (GH2), transcript variant 2, mRNA.",on MEFS,1.4679
same,"mean normalized intensity (log format), gene: Homo sapiens hypothetical protein FLJ20075 (FLJ20075), mRNA.",on MEFS,−0.06528
same,"mean normalized intensity (log format), gene: Homo sapiens mRNA for SCCA2b, complete cds.",on MEFS,0.568
same,"mean normalized intensity (log format), gene: Homo sapiens mRNA; cDNA DKFZp586P1124 (from clone DKFZp586P1124)",on MEFS,−3.094
